# Source: US20090042849A1, “Phosphorylation of 5-lipoxygenase at ser523 and uses thereof” (priority 2006, published 2009)
# “Also recorded” adds a separate entry of the source.
# Key:
# [1] = system: neonatal rat cardiomyocytes; conditions: neonatal rat cardiomyocytes cultures; cited from earlier work
# 5LO mRNA = experiment: rtPCR of 5LO mRNA in adult rat cardiomyocytes; assay type: cell-based
# Experimental: Cardiac myocytes were isolated from adult Sprague-Dawley rats (250-300 g, male). Animals were heparinized (1,000-2,000 units i.p.) 5 min before being anesthetized with ketamine (100 mg/kg) and xylazine (10 mg/kg), and the hearts were removed and placed in ice-cold heart media solution (in mmol/l: 112 NaCl, 5.4 KCl, 1 MgCl2, 9 NaH2PO4, and 11.1 D-glucose; supplemented with 10 HEPES, 30 taurine, 2 DL-carnitine, and 2 creatine, pH. 7.4). The hearts were perfused retrogradely in a Langendorff apparatus with Ca^2+-free heart media for 5 min at 5 ml/min at 37° C., followed by perfusion with Ca^2+-free heart media containing collagenase II, 210 U/mg (Worthington, Lakewood, N.J.) for 20 min. After perfusion, both ventricles were removed from the heart and minced in collagenase II-containing heart media for 10-15 min. The cell solution was then washed several times to remove collagenase II and reexposed to 1.2 mM Ca2^+ over 25 min to produce Ca2^+-tolerant cardiac myocytes. Myocytes were then plated in 4% FBS on laminin (2 μg/cm^2)-coated plates for 1 h and incubated at 37° C. in 5% CO2 for 12-24 h before experiments (21). Cells were incubated with 1) vehicle (0.07% ethanol); 2) PIO (10 μM)+ATV (10 μM); 3) H-89 (0.1 μM); or 4) PIO+ATV+H-89 for 12 hours. The supernatants were collected directly for LTB4 analyses by ELISA and the cells were harvested for immunoblotting. In addition, cells were plated in 8-chamber slides, received the same treatment as above and were used for immunohistochemical staining.
# Equal amounts of total cellular RNA were reverse-transcribed with oligo(dT) primer by use of AMV Reverse Transcriptase (Applied Biosystems). Transcribed cDNAs (40 ng) were used for Real Time PCR with specific primers: rat ALOX5. […] The Ct (threshold cycle) is defined as the number of cycles required for the fluorescence signal to exceed the detection threshold. Expression of the ALOX5 relative to the GAPDH was calculated as the different between the threshold values of these two genes. […]
# 5LO = experiment: immunoblotting of 5LO in cytosolic, membranous and nuclear fractions of myocardial cells; assay type: in vivo; conditions: rat myocardium
# Experimental: Rats received: 1) […] (20 mg/kg) or 6) water alone (control). PIO and ATV were suspended in water and administered by gastric gavage once daily for 3 days; H-89 was dissolved in DMSO (final concentration 5% v/v) and injected intraperitoneally on the third day. Rats in groups 5 and 6 received water by gastric gavage once daily for 3 days. Rats in groups 1, 2 and 6 received intraperitoneal inkection of DMSO 5%. Sixteen hours after the injection, rats were euthanized and the hearts explanted for further analyses. In another experiment, rats received 3-day pretreatment with: 1) […]); or 5) LPS (10 mg/kg). Myocardial samples (0.25 g) were homogenized, mixed with Buffer A Mix [Hepes (pH 7.9) 10 mM, KCl 10 mM, EDTA 10 mM, DTT 100 mM, protease inhibitor cocktail, and IGEPAL 10%, (Sigma, St Lois, Mo.)], homogenized again and incubated for 15 min on ice, and centrifuged at 850×g for 10 min at 4° C. The supernatant was discharged, Buffer A Mix was added again and the samples incubated for an additional 15 min on ice, and centrifuged at 15,000×g for 3 min at 40 C. The supernatant contains the cytosolic fraction was collected. The pellet was resuspended in 150 μl of Buffer B Mix [Hepes (pH 7.9) 20 mM, NaCl 0.4M, EDTA 1 mM, glycerol 10%, protease inhibitor cocktail, and IGEPAL 10%], the tubes were shaked on ice at 200 rpm for 2 h, centrifuged at 15,000×g for 5 min at 4° C., and supernatants were collected as the nuclear fraction. […] The hearts were rapidly explanted, rinsed in cold PBS (pH 7.4), containing 0.16 mg/ml heparin to remove red blood cells and clots, frozen in liquid nitrogen and stored at -70° C. Myocardial samples from the anterior left ventricular wall were homogenized in RIPA lysis buffer (Santa Cruz Biotechnology, Santa Cruz, Calif.) and centrifuged at 14,000 rpm for 15 min at 4° C. The supernatant was collected and the total protein concentration was determined using the Lowry protein assay. […] The protein samples with loading buffer were run in 4-20% Tri-HCl Ready Gel at a 100V for 2 h until the desired molecular weight bands were separated. After electrophoresis, the gel was equilibrated in transfer buffer (25 mM Tris, 193 mM glycine, 0.1% SDS and 10% methanol) and the proteins were transferred to nitrocellulose membrane. The protein signals were quantified by an image-scanning-densitometer and the strength of each protein signal was normalized to the corresponding b-actin stain signal. Data are expressed as a ratio between the protein and the corresponding b-actin signal density.
# [2] = system: 5LO interaction with COX2 / cPLA2; experiment: co-immunoprecipitation of 5LO with COX2 and cPLA2 in rat hearts; assay type: in vivo
# Experimental: (§1) Rats received: 1) PIO (10 mg/kg/d); 2) ATV (10 mg/kg/d); 3) PIO (10 mg/kg/d)+H89 (20 mg/kg); 4) ATV (10 mg/kg/d)+H89 (20 mg/kg); 5) H89 (20 mg/kg) or 6) water alone (control). PIO and ATV were suspended in water and administered by gastric gavage once daily for 3 days; H-89 was dissolved in DMSO (final concentration 5% v/v) and injected intraperitoneally on the third day. Rats in groups 5 and 6 received water by gastric gavage once daily for 3 days. Rats in groups 1, 2 and 6 received intraperitoneal inkection of DMSO 5%. Sixteen hours after the injection, rats were euthanized and the hearts explanted for further analyses. In another experiment, rats received 3-day pretreatment with: 1) water (sham); 2) PIO (10 mg/kg/d); 3) ATV (10 mg/kg/d); 4) PIO (10 mg/kg/d)+ATV (10 mg/kg/d); or 5) LPS (10 mg/kg).
# For co-immunoprecipitation, myocardial cytosolic, membranous and nuclear fractions (500 μg) were incubated with anti-5LO antibodies for 4 h followed by overnight incubation at 4° C. with Protein-A-Agarose. The agarose beads were collected by centrifugation and SDS/PAGE Western immunoblotting was performed with the supernatant fraction. The anti-5LO precipitates were subjected to immunoblotting with anti-COX2 or anti-cPLA2 antibodies.
# [3] = system: 5LO (Ser523 phosphorylated 5LO); experiment: immunoblotting of total 5LO and P-5LO in rat myocardium (whole cell homogenate); assay type: in vivo
# Experimental: as §1
# PIO and ATV were administered by oral gavage once daily as above; LPS was administered intravenously. In addition, rats in groups 1-4 received intravenous saline on the […], whereas rats in group 1 and 5 received water by gastric gavage once daily for 3 days and the LPS injection on the third day. Sixteen hours after the injection, rats were euthanized and the hearts explanted for further analyses.
# The hearts were rapidly explanted, rinsed in cold PBS (pH 7.4), containing 0.16 mg/ml heparin to remove red blood cells and clots, frozen in liquid nitrogen and stored at −70° C. Myocardial samples from the anterior left ventricular wall were homogenized in RIPA lysis buffer (Santa Cruz Biotechnology, Santa Cruz, Calif.) and centrifuged at 14,000 rpm for 15 min at 4° C. The supernatant was collected and the total protein concentration was determined using the Lowry protein assay. […] The protein samples with loading buffer were run in 4-20% Tri-HCl Ready Gel at a 100V for 2 h until the desired molecular weight bands were separated. After electrophoresis, the gel was equilibrated in transfer buffer (25 mM Tris, 193 mM glycine, 0.1% SDS and 10% methanol) and the proteins were transferred to nitrocellulose membrane. The protein signals were quantified by an image-scanning-densitometer and the strength of each protein signal was normalized to the corresponding b-actin stain signal. Data are expressed as a ratio between the protein and the corresponding b-actin signal density.
# rat infarct model = experiment: rat infarct model, infarct size; assay type: in vivo; conditions: ATV 2 mg/kg/d, cilostazol 20 mg/kg/d, alone or combined
# Experimental: The effects of cilostazol (Pletal) and atorvastatin on myocardial protection was measured in a rat infarct model. Pletal is a phosphodiesterase III inhibitor, thus increasing intracellular cAMP levels. cAMP activates PKA. ATV at 2 mg/kg/d had no effect. Cilostazol 20 mg/kg/d reduced infarct size. However, when combined with ATV 2 mg/kg/d the effect was much greater. There are 8 rats in the control and ATV 2 mg/kg/d groups and 6 rats in the cilostazol and the combination groups. Infarct size in the ATV 2 mg/kg/d (30.48±1.46%) is not different from the controls (33.97±2.76%).
# [4] = whole cell homogenate, PIO or ATV 10 mg/kg/d 3 days, H-89 20 mg/kg i.p.
smiles,measurement,setting,value
CC(C)c1ccc2c(c1)c(SC(C)(C)C)c(CC(C)(C)C(=O)O)n2Cc1ccc(Cl)cc1 [MK886],calcium ionophore (A23187) induction of reactive oxygen species,[1],prevented
"CCc1ccc(CCOc2ccc(CC3SC(=O)NC3=O)cc2)nc1 (centres unmarked) [PIO, 5-[[4-[2-(5-ethylpyridin-2 yl)ethoxy]phenyl]methyl]thiazolidine-2,4-dione]",5LO mRNA levels in the cardiomyocytes,5LO mRNA,did not affect
same,5LO levels in the cytosolic fraction,5LO,"small, yet significant increase"
same,5LO levels in the membranous fraction,5LO,no detectable effect
same,fraction in which the co-immunoprecipitation with 5LO occurred,[2]; cytosolic and membranous fractions,"in the cytosolic, but not the membranous fraction; also recorded: only in the cytosolic fraction"
same,co-immunoprecipitation of COX2 or cPLA2 with 5LO,[2]; whole cell lysate,"5LO precipitated with COX2 and COX2, but not cPLA2, precipitated with 5LO"
same,"5LO phosphorylation, PIO and ATV compared with LPS","[3]; PIO, ATV 10 mg/kg/d, LPS 10 mg/kg i.v.",significantly greater increase
same,myocardial levels of Ser523 phosphorylated 5LO (P-5LO),[3]; [4],augment; also recorded: increased
same,myocardial total 5LO levels,[3]; [4],without detectable change; also recorded: did not affect
O=C1CCc2cc(OCCCCc3nnnn3C3CCCCC3)ccc2N1 [cilostazol],Infarct size,rat infarct model,15.47±1.61%
same,effect on infarct size (in words),rat infarct model,reduced
